Source: ChEMBL document CHEMBL4831506, “Discovery of novel trimethoxyphenylbenzo[d]oxazoles as dual tubulin/PDE4 inhibitors capable of inducing apoptosis at G2/M phase arrest in glioma and lung cancer cells” (Eur J Med Chem, 2021)
Active and inactive are the calls of the source. No cut-off for these calls is given here.

How the values were obtained:
[1] = biological target: 3',5'-cyclic-AMP phosphodiesterase 4C (Homo sapiens, UniProt Q08493); experiment: Inhibition of PDE4 CAT (unknown origin)
Tubulin (Homo sapiens) = Tubulin (Homo sapiens) (UniProt P68371+Q9H4B7+P0DPH7+P68366+Q13509+Q71U36+P04350+Q3ZCM7+P07437+P68363+Q9BQE3+Q6PEY2+Q13885+Q9BVA1+Q9BUF5); experiment: Inhibition of tubulin assembly in human A549 cells measured after 24 hrs; format: cell-based
U-251 [2] = experiment: Induction of apoptosis in human U-251 cells assessed as increase in late apoptotic cells at 200 nM measured after 24 hrs by PI/FITC analysis (reference value: 0.311%); format: functional
A549 [3] = experiment: Cell cycle arrest in human A549 cells assessed as decrease in cdc25C expression by Western blot analysis; format: functional, cell-based; settings: dose 50-500 nM
A549 [4] = experiment: Cell cycle arrest in human A549 cells assessed as G2/M phase at 50 nM measured after 24 hrs by propidium iodide staining based flow cytometry analysis (reference value: 6.08%); format: functional
A549 [5] = experiment: Cell cycle arrest in human A549 cells assessed as G2/M phase at 200 nM measured after 24 hrs by propidium iodide staining based flow cytometry analysis (reference value: 6.08%); format: functional
A549 [6] = experiment: Induction of apoptosis in human A549 cells assessed as increase in viable cells at 50 nM measured after 24 hrs by PI/FITC analysis (reference value: 98.4%); format: functional
U-251 [7] = experiment: Cell cycle arrest in human U-251 cells assessed as G0/G1 phase at 200 nM measured after 24 hrs by propidium iodide staining based flow cytometry analysis (reference value: 67.34%); format: functional
A549 [8] = experiment: Induction of apoptosis in human A549 cells assessed as increase in viable cells at 200 nM measured after 24 hrs by PI/FITC analysis (reference value: 98.4%); format: functional
U-251 [9] = experiment: Induction of apoptosis in human U-251 cells assessed as increase in viable cells at 500 nM measured after 24 hrs by PI/FITC analysis (reference value: 98.3%); format: functional
U-251 [10] = experiment: Cell cycle arrest in human U-251 cells assessed as S phase at 1000 nM measured after 24 hrs by propidium iodide staining based flow cytometry analysis (reference value: 18.23%); format: functional
A549 [11] = experiment: Induction of apoptosis in human A549 cells assessed as increase in necrotic cells at 500 nM measured after 24 hrs by PI/FITC analysis (reference value: 0.365%); format: functional
U-251 [12] = experiment: Induction of apoptosis in human U-251 cells assessed as increase in early apoptotic cells at 200 nM measured after 24 hrs by PI/FITC analysis (reference value: 1.12%); format: functional
U-251 [13] = experiment: Antiproliferative activity against human U-251 cells after 48 hrs by MTT assay; format: functional, cell-based; settings: U-251, 48 h
A549 [14] = experiment: Cell cycle arrest in human A549 cells assessed as S phase at 500 nM measured after 24 hrs by propidium iodide staining based flow cytometry analysis (reference value: 14.78%); format: functional
U-251 [15] = experiment: Induction of apoptosis in human U-251 cells assessed as increase in necrotic cells at 200 nM measured after 24 hrs by PI/FITC analysis (reference value: 0.301%); format: functional
A549 [16] = experiment: Cell cycle arrest in human A549 cells assessed as G2/M phase at 500 nM measured after 24 hrs by propidium iodide staining based flow cytometry analysis (reference value: 6.08%); format: functional

Chain of 3',5'-cyclic-AMP phosphodiesterase 4C (Q08493 whole entry): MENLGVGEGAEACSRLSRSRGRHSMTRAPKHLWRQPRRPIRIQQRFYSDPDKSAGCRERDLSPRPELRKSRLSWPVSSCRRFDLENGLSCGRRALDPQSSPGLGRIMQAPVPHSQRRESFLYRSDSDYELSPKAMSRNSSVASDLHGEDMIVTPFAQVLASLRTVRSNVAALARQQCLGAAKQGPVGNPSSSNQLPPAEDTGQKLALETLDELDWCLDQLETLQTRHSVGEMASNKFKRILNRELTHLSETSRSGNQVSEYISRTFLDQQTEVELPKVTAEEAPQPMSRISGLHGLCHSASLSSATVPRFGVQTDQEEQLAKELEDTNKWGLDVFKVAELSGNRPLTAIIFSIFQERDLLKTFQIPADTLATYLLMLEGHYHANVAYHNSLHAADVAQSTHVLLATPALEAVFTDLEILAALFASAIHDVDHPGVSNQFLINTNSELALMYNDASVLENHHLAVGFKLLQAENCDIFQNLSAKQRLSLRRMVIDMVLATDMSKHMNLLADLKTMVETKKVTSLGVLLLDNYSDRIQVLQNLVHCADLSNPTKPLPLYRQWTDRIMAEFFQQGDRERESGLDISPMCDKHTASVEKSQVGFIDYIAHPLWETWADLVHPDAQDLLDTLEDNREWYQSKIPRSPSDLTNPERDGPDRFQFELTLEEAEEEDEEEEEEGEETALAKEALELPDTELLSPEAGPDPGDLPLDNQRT

COc1cc(-c2cccc3nc(-c4ccc5cc[nH]c5c4)oc23)cc(OC)c1OC
IC50 [1]: 1250 nM | inhibition (Tubulin (Homo sapiens)): Active | Activity (U-251 [2]): 6.95% | Activity (A549 [3]): Dose-Dependent Effect | Activity (A549 [4]): 19.43% | Activity (A549 [5]): 61.33% | Activity (A549 [6]): 86.9% | Activity (U-251 [7]): 43.71% | Activity (A549 [8]): 79.8% | Activity (U-251 [9]): 83.1% | Activity (U-251 [10]): 14.77% | Activity (A549 [11]): 2.84% | Activity (U-251 [12]): 3.09% | IC50 (U-251 [13]): 300 nM | Activity (A549 [14]): 28.03% | Activity (U-251 [15]): 2.01% | Activity (A549 [16]): 68.09%
